Experimental findings from patent US9637487B2, “Purinone compounds as kinase inhibitors” (Pharmacyclics LLC, priority 2013, dated 2017) are described below.

The structures appear in SMILES notation. Some results are limits rather than exact numbers.

The target in this experiment is Btk (Homo sapiens (Human), UniProt Q06187). The experiment can be described thus: Btk in vitro inhibitory activity (one of Method A TR-FRET, Method B mobility shift, Method C radiometric filter binding). It is filed as biochemical. To be noted: determined using one of the methods outlined in Example 36a, 36b and 36c. On the procedure: Btk kinase activity is determined using a time-resolved fluorescence resonance energy transfer (TR-FRET) methodology. Measurements are performed in a reaction volume of 50 μL using 96-well assay plates. […] The reaction is quenched by the addition of 1.2 equivalents of EDTA (relative to divalent cation) in 25 μL of 1× Lance buffer (Perkin-Elmer). […] The TR-FRET signal is measured on a multimode plate reader with an excitation wavelength (λEx) of 330 nm and detection wavelengths (λEm) of 615 and 665 nm. Activity is determined by the ratio of the fluorescence at 665 nm to that at 615 nm. For each compound, enzyme activity is measured at various concentrations of compound. Negative control reactions are performed in the absence of inhibitor in replicates of six, and two no-enzyme controls are used to determine baseline fluorescence levels Inhibition constants, Ki(app), ware obtained using the program BatchKi (Kuzmic et al. (2000), Anal. Biochem. 286:45-50). IC50s are obtained according to the equation: IC50={Ki(app)/(1+[ATP]/Km^ATP)}+[E]total/2;
Chain of Btk (Q06187 whole entry): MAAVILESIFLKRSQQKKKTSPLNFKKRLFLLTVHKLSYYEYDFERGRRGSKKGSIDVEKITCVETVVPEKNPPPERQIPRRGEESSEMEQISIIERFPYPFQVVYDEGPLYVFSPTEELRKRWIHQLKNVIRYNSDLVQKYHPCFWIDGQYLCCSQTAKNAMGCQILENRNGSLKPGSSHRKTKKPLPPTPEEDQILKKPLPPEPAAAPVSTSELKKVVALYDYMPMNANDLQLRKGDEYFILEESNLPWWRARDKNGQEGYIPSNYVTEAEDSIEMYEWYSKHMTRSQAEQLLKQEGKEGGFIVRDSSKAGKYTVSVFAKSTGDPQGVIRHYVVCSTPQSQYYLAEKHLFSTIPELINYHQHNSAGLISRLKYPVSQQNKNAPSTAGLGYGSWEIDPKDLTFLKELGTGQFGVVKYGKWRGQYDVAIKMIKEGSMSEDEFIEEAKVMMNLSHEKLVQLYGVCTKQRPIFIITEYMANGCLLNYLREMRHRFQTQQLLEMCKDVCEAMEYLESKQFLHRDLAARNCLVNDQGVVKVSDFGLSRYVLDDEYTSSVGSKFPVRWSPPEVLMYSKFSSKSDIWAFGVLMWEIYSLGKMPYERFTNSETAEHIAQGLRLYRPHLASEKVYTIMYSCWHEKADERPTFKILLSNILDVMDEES
Kinase activity is measured in vitro using electrophoretic mobility shift assay. The kinase reactions are assembled in a total volume of 25 μL in 384 well plates. […] The reaction is incubated for one hour and is quenched by the addition of 45 μL of termination buffer (100 mM HEPES, pH7.5, 0.01% Triton X-100, 30 mM EDTA). The terminated reactions are analyzed using 12 channel LabChip® 3000 microfluidic detection instrument (Caliper Life Sciences). […] Change in the relative fluorescence intensity of the substrate and product peaks is the parameter measured, reflecting enzyme activity. In the presence of an inhibitor, the ratio between product and substrate is altered: the signal of the product decreases, while the signal of the substrate increases.
Activity in each sample is determined as the product to sum ratio (PSR):P/(S+P), where P is the peak height of the product peptide and S is the peak height of the substrate peptide. For each compound, enzyme activity is measured at various concentrations (12 concentrations of compound spaced by 3× dilution intervals). Negative control samples (0%-inhibition in the absence of inhibitor) and positive control samples (100%-inhibition, in the presence of 20 mM EDTA) are assembled in replicates of four and are used to calculate %-inhibition values for each inhibitor at each concentration. Percent inhibition (Pinh) is determined using following equation: Pinh=(PSR0%−PSRinh)/(PSR0%−PSR100%)*100, where PSRinh is the product sum ratio in the presence of inhibitor, PSR0% is the average product sum ration in the absence of inhibitor and PSR100% is the average product sum ratio in 100%-inhibition control samples;
The IC50 values of inhibitors are determined by 4 parameter sigmoidal dose-response model fitting of the inhibition curves (Pinh versus inhibitor concentration) using XLfit 4 software.
IC50 values and curve fits were obtained using Prism (GraphPad Software).
The degree of Btk inhibition was determined using one of the methods outlined in Example 36a, 36b and 36c.
Regarding `CN(C)C/C=C/C(=O)N(C)c1cccc(-n2c(=O)n(-c3ccc(C(=O)Nc4nccs4)cc3)c3c(N)ncnc32)c1` [Compound 18, (E)-4-(6-amino-9-(3-(4-(dimethylamino)-N-methylbut-2-enamido)phenyl)-8-oxo-8,9-dihydro-7H-purin-7-yl)-N-(thiazol-2-yl)benzamide], the IC50 was below 0.1 µM. With `CN(C(=O)/C=C/CN(C)C1CC1)c1cccc(-n2c(=O)n(-c3ccc(Oc4ccccc4)cn3)c3c(N)ncnc32)c1` [Compound 58, (E)-N-(3-(6-amino-8-oxo-7-(5-phenoxypyridin-2-yl)-7H-purin-9(8H)-yl)phenyl)-4-(cyclopropyl(methyl)amino)-N-methylbut-2-enamide], the half-maximal inhibitory concentration (IC50) was below 0.1 µM.

For the molecule `CN(C)C/C=C/C(=O)N(C)c1cccc(-n2c(=O)n(-c3ccc(C(=O)Nc4nc5ccccc5s4)cc3)c3c(N)ncnc32)c1` [Compound 23, (E)-4-(6-amino-9-(3-(4-(dimethylamino)-N-methylbut-2-enamido)phenyl)-8-oxo-8,9-dihydro-7H-purin-7-yl)-N-(benzo[d]thiazol-2-yl)benzamide], the IC50 is below 0.1 µM.

Take `CN(C(=O)/C=C/CN(C)C1CC1)c1cccc(-n2c(=O)n(-c3ccc(C(=O)c4ccccc4)cc3)c3c(N)ncnc32)c1` [Compound 27, (E)-N-(3-(6-amino-7-(4-benzoylphenyl)-8-oxo-7H-purin-9(8H)-yl)phenyl)-4-(cyclopropyl(methyl)amino)-N-methylbut-2-enamide]: the IC50 is below 0.1 µM.

For `C=CC(=O)N(C)c1cccc(-n2c(=O)n(-c3ccc(C(=O)Nc4ccccn4)cc3)c3c(N)ncnc32)c1` [Compound 29, 4-(6-amino-9-(3-(N-methylacrylamido)phenyl)-8-oxo-8,9-dihydro-7H-purin-7-yl)-N-(pyridin-2-yl)benzamide], the IC50 is below 0.1 µM. For `CCCc1ccnc(NC(=O)c2ccc(-n3c(=O)n(-c4cccc(N(C)C(=O)/C=C/CN(C)C)c4)c4ncnc(N)c43)cc2)c1` [Compound 9, (E)-4-(6-amino-9-(3-(4-(dimethylamino)-N-methylbut-2-enamido)phenyl)-8-oxo-8,9-dihydro-7H-purin-7-yl)-N-(4-propylpyridin-2-yl)benzamide] the value was below 0.1 µM; for `Cc1csc(NC(=O)c2ccc(-n3c(=O)n(-c4cccc(N(C)C(=O)/C=C/CN(C)C)c4)c4ncnc(N)c43)cc2)n1` [Compound 20, (E)-4-(6-amino-9-(3-(4-(dimethylamino)-N-methylbut-2-enamido)phenyl)-8-oxo-8,9-dihydro-7H-purin-7-yl)-N-(4-methylthiazol-2-yl)benzamide], below 0.1 µM. In the case of `CN(C)C/C=C/C(=O)N(C)c1cccc(-n2c(=O)n(-c3ccc(OC4CC4)cc3)c3c(N)ncnc32)c1` [Compound 28, (E)-N-(3-(6-amino-7-(4-cyclopropoxyphenyl)-8-oxo-7H-purin-9(8H)-yl)phenyl)-4-(dimethylamino)-N-methylbut-2-enamide], the IC50 fell in the range of 0.1 to 1 µM. For `CN(C(=O)/C=C/CN(C)C1CC1)c1cccc(-n2c(=O)n(-c3ccc(Oc4ccccn4)cc3)c3c(N)ncnc32)c1` [Compound 63, (E)-N-(3-(6-amino-8-oxo-7-(4-(pyridin-2-yloxy)phenyl)-7H-purin-9(8H)-yl)phenyl)-4-(cyclopropyl(methyl)amino)-N-methylbut-2-enamide], the IC50 was below 0.1 µM. Turning to `CN(C)C/C=C/C(=O)N(C)c1cccc(-n2c(=O)n(-c3ccc(C(=O)Nc4cccc(-c5ncccn5)c4)cc3)c3c(N)ncnc32)c1` [Compound 12, (E)-4-(6-amino-9-(3-(4-(dimethylamino)-N-methylbut-2-enamido)phenyl)-8-oxo-8,9-dihydro-7H-purin-7-yl)-N-(3-(pyrimidin-2-yl)phenyl)benzamide], the IC50 is below 0.1 µM. For `CNC(=O)/C(C#N)=C/c1cccc(-n2c(=O)n(-c3ccc(Oc4ccccc4)cc3)c3c(N)ncnc32)c1` [Compound 44, (E)-3-(3-(6-amino-8-oxo-7-(4-phenoxyphenyl)-7H-purin-9(8H)-yl)phenyl)-2-cyano-N-methylacrylamide] the value was below 0.1 µM; for `CN(C(=O)/C=C/CN1CCCC1)c1cccc(-n2c(=O)n(-c3ccc(Oc4ccccc4)cc3)c3c(N)ncnc32)c1` [Compound 52, (E)-N-(3-(6-amino-8-oxo-7-(4-phenoxyphenyl)-7H-purin-9(8H)-yl)phenyl)-N-methyl-4-(pyrrolidin-1-yl)but-2-enamide], below 0.1 µM; for `Cc1cc(NC(=O)c2ccc(-n3c(=O)n(-c4cccc(N(C)C(=O)/C=C/CN(C)C)c4)c4ncnc(N)c43)cc2)ncc1F` [Compound 16, (E)-4-(6-amino-9-(3-(4-(dimethylamino)-N-methylbut-2-enamido)phenyl)-8-oxo-8,9-dihydro-7H-purin-7-yl)-N-(5-fluoro-4-methylpyridin-2-yl)benzamide], below 0.1 µM. Regarding `CCc1ccnc(NC(=O)c2ccc(-n3c(=O)n(-c4cccc(N(C)C(=O)/C=C/CN(C)C)c4)c4ncnc(N)c43)cc2)c1` [Compound 8, (E)-4-(6-amino-9-(3-(4-(dimethylamino)-N-methylbut-2-enamido)phenyl)-8-oxo-8,9-dihydro-7H-purin-7-yl)-N-(4-ethylpyridin-2-yl)benzamide], the IC50 was below 0.1 µM. Take `Cc1nnc(NC(=O)c2ccc(-n3c(=O)n(-c4cccc(N(C)C(=O)/C=C/CN(C)C)c4)c4ncnc(N)c43)cc2)s1` [Compound 24, (E)-4-(6-amino-9-(3-(4-(dimethylamino)-N-methylbut-2-enamido)phenyl)-8-oxo-8,9-dihydro-7H-purin-7-yl)-N-(5-methyl-1,3,4-thiadiazol-2-yl)benzamide]: the IC50 is 1 to 10 µM. For the molecule `CN(C)C/C=C/C(=O)N(C)c1cccc(-n2c(=O)n(-c3ccc(C(=O)c4ccccc4)cc3)c3c(N)ncnc32)c1` [Compound 26, (E)-N-(3-(6-amino-7-(4-benzoylphenyl)-8-oxo-7H-purin-9(8H)-yl)phenyl)-4-(dimethylamino)-N-methylbut-2-enamide], the IC50 was below 0.1 µM. As to `C=CC(=O)N(C)c1cccc(-n2c(=O)n(-c3ccc(OC4CC4)cc3)c3c(N)ncnc32)c1` [Compound 30, N-(3-(6-amino-7-(4-cyclopropoxyphenyl)-8-oxo-7H-purin-9(8H)-yl)phenyl)-N-methylacrylamide], the IC50 was below 0.1 µM. Consider `CN(C)C/C=C/C(=O)N(C)c1cccc(-n2c(=O)n(-c3ccc(C(=O)Nc4ccccn4)cc3)c3c(N)ncnc32)c1` [Compound 6, (E)-4-(6-amino-9-(3-(4-(dimethylamino)-N-methylbut-2-enamido)phenyl)-8-oxo-8,9-dihydro-7H-purin-7-yl)-N-(pyridin-2-yl)benzamide], for which the IC50 was below 0.1 µM. Turning to `CN(C(=O)/C=C/CN1CCOCC1)c1cccc(-n2c(=O)n(-c3ccc(Oc4ccccc4)cc3)c3c(N)ncnc32)c1` [Compound 51, (E)-N-(3-(6-amino-8-oxo-7-(4-phenoxyphenyl)-7H-purin-9(8H)-yl)phenyl)-N-methyl-4-morpholinobut-2-enamide], the IC50 is below 0.1 µM. As for `CN(C)C/C=C/C(=O)N(C)c1cccc(-n2c(=O)n(-c3ccc(C(=O)Nc4cc(C(F)(F)F)ccn4)cc3)c3c(N)ncnc32)c1` [Compound 10, (E)-4-(6-amino-9-(3-(4-(dimethylamino)-N-methylbut-2-enamido)phenyl)-8-oxo-8,9-dihydro-7H-purin-7-yl)-N-(4-(trifluoromethyl)pyridin-2-yl)benzamide], the IC50 is below 0.1 µM. For `Cc1cc(NC(=O)c2ccc(-n3c(=O)n(-c4cccc(N(C)C(=O)/C=C/CN(C)C)c4)c4ncnc(N)c43)cc2)sn1` [Compound 25, (E)-4-(6-amino-9-(3-(4-(dimethylamino)-N-methylbut-2-enamido)phenyl)-8-oxo-8,9-dihydro-7H-purin-7-yl)-N-(3-methylisothiazol-5-yl)benzamide] the value was 0.1 to 1 µM. Turning to `CN(C(=O)/C=C/CN(C)C1CC1)c1cccc(-n2c(=O)n(-c3ccc(Oc4ccccc4)nc3)c3c(N)ncnc32)c1` [Compound 49, (E)-N-(3-(6-amino-8-oxo-7-(6-phenoxypyridin-3-yl)-7H-purin-9(8H)-yl)phenyl)-4-(cyclopropyl(methyl)amino)-N-methylbut-2-enamide], the IC50 is below 0.1 µM.
